Measured values published in patent publication US20250066376A1, “OPIOID RECEPTOR ANTAGONIST PRODRUGS” (Nirsum Laboratories, Inc., priority 2024, published 2025).

Assay: Solubility of naloxone and naltrexone prodrug compounds
Format: physicochemical
Settings: for Solubility in water: lower limit of aqueous solubility; for Solubility in cottonseed oil / Solubility in miglyol 812N / Solubility in sesame oil: solubility study in oil excipients at 50 mg/ml (base equivalents)
Description: Example 12: Solubility of Naloxone and Naltrexone Prodrug Compounds
Table 12 and Table 13 report the solubility data for the naloxone and naltrexone prodrug compounds, respectively.

| Structure (SMILES) | Solubility in water | Solubility in cottonseed oil (naltrexone prodrugs (Table 13)) | Solubility in miglyol 812N (naltrexone prodrugs (Table 13)) | Solubility in sesame oil (naltrexone prodrugs (Table 13)) | Solubility in cottonseed oil (naloxone prodrugs (Table 12)) | Solubility in miglyol 812N (naloxone prodrugs (Table 12)) | Solubility in sesame oil (naloxone prodrugs (Table 12)) |
| --- | --- | --- | --- | --- | --- | --- | --- |
| CCCCCCCCOC(=O)OCOc1ccc2c3c1O[C@H]1C(=O)CC[C@@]4(O)[C@@H](C2)N(CC2CC2)CC[C@]314 [IV-6, [(3R,4aS,7aR,12bS)-3-(cyclopropylmethyl)-4a-hydroxy-7-oxo-2,4,5,6,7a,13-hexahydro-1H-4,12-methanobenzofuro[3,2-e]isoquinoline-9-yl]oxymethyl octyl carbonate] | Solubility in water: <0.001 mg/mL | In cottonseed oil: >50.28 mg/mL | In miglyol 812N: >50.11 mg/mL | In sesame oil: >50.43 mg/mL | – | – | – |
| CCCCCCOC(=O)OCOc1ccc2c3c1O[C@H]1C(=O)CC[C@@]4(O)[C@@H](C2)N(CC2CC2)CC[C@]314 [IV-5, [(3R,4aS,7aR,12bS)-3-(cyclopropylmethyl)-4a-hydroxy-7-oxo-2,4,5,6,7a,13-hexahydro-1H-4,12-methanobenzofuro[3,2-e]isoquinoline-9-yl]oxymethyl hexyl carbonate] | Solubility in water: <0.001 mg/mL | In cottonseed oil: <50.19 mg/mL | In miglyol 812N: <50.24 mg/mL | In sesame oil: >50.31 mg/mL | – | – | – |
| CCCCOC(=O)OCOc1ccc2c3c1O[C@H]1C(=O)CC[C@@]4(O)[C@@H](C2)N(CC2CC2)CC[C@]314 [IV-4, [(3R,4aS,7aR,12bS)-3-(cyclopropylmethyl)-4a-hydroxy-7-oxo-2,4,5,6,7a,13-hexahydro-1H-4,12-methanobenzofuro[3,2-e]isoquinoline-9-yl]oxymethyl butyl carbonate] | Solubility in water: <0.001 mg/mL | In cottonseed oil: <50.12 mg/mL | In miglyol 812N: <50.41 mg/mL | In sesame oil: <50.07 mg/mL | – | – | – |
| C=CCN1CC[C@]23c4c5ccc(OCOC(=O)CCCCC)c4O[C@H]2C(=O)CC[C@@]3(O)[C@H]1C5 [III-1, [(3R,4aS,7aR,12bS)-3-allyl-4a-hydroxy-7-oxo-2,4,5,6,7a,13-hexahydro-1H-4,12-methanobenzofuro[3,2-e]isoquinoline-9-yl]oxymethyl hexanoate] | Solubility in water: <0.001 mg/mL | – | – | – | In cottonseed oil: >50.03 mg/ml | In miglyol 812N: <50.53 mg/ml | In sesame oil: >50.01 mg/ml |
| C=CCN1CC[C@]23c4c5ccc(OCOC(=O)CCCCC)c4O[C@H]2C(=O)CC[C@@]3(O)[C@H]1C5 [III-2, [(3R,4aS,7aR,12bS)-3-allyl-4a-hydroxy-7-oxo-2,4,5,6,7a,13-hexahydro-1H-4,12-methanobenzofuro[3,2-e]isoquinoline-9-yl]oxymethyl hexanoate] | Solubility in water: <0.001 mg/mL | – | – | – | In cottonseed oil: >50.48 mg/ml | In miglyol 812N: <50.28 mg/ml | In sesame oil: <50.44 mg/ml |
